Laboratory results published in patent US20220034903A1, “Therapies That Target Autoimmunity For Treating Glaucoma And Optic Neuropathy” (The Schepens Eye Research Institute, Inc., priority 2011, published 2022).

Key:
Type in all cases: in vivo
RGCs [1] = assay: AION (ischemic optic neuropathy), RGC loss in retinal flat-mounts; conditions: WT mice, injected into the vitreous at 3, 7 and 14 days post injury, sacrificed 4 weeks after AION, vs IgG isotype
Description: OKT3 antibody was injected into the vitreous of ischemia WT mice at 3, 7, and 14 days post injury. Injection of IgG isotype served as the control. All of the recipient mice were sacrificed at 4 weeks after AION.
(§1) A standard procedure for quantification of RGC axon loss in optic nerve sections was used, e.g., as described in Cho et al., J Cell Sci 118, 863-872. (2005). Axonal density was calculated, and the percentage of axon loss was determined by comparing with the axon density calculated from corresponding regions of the contralateral control eyes. RGC loss was assessed quantitatively in retinal flat-mounts that were incubated with a primary antibody against a RGC specific marker, β-III-tubulin (Fournier, A. E. & McKerracher, L. Biochem Cell Biol 73, 659-664 (1995); Fitzgerald et al., Investigative ophthalmology & visual science (2009); Tuj1; Sigma-Aldrich, St.), followed by a Alexa Fluor 488-conjugated secondary antibody. The degree of RGC loss was assessed as previously described (Chen et al., Investigative ophthalmology & visual science 52, 36-44 (2011)). The total numbers and densities of RGCs were calculated, and the percentage of RGC loss was determined by comparing RGC number with that obtained from the corresponding regions of the contralateral control eyes. […]

retinal activity = assay: Electroretinogram a and b wave after AION; conditions: mice with AION, vs IgG isotype-injected ischemia group, different intensity of light stimulation
RGCs [2] = assay: Optic nerve crush injury, RGC loss at 4 weeks; conditions: wild-type mice, rapamycin i.p. 100 μg/day, 4 weeks post-optic nerve crush (87% loss without treatment)
Description: FIG. 9 is a bar chart showing that suppressing autoimmunity using immuno-deficient mice or immune suppressor promotes RGC survival after optic neuropathy. Optic never crush injury was performed in wild-type (wt) mice that received daily injection of PBS (wt) or rapamycin (Rapam) as well as in Rag1^−/− (Rag1) and TCRβ^−/− (TCRβ) mice. Animals were sacrificed 4 weeks post operation, and percentage of RGC loss was assessed. (*P<0.01 as compared to the normal subject group).
as §1, with “(2011)).” for “(2011)). The total numbers and densities of RGCs were calculated, and the percentage of RGC loss was determined by comparing RGC number with that obtained from the corresponding regions of the contralateral control eyes.”

Molecule | effect on RGC loss after AION (RGCs [1]) | retinal function (electroretinogram a and b wave) after AION (retinal activity) | RGC loss (RGCs [2]) [%]
OKT3 antibody: monoclonal antibody targeted at the CD3 receptor on T cells; clinically approved immunosuppressant | neuroprotective effect | functional rescue of retinal activity | –
CO[C@H]1C[C@@H]2CC[C@@H](C)[C@@](O)(O2)C(=O)C(=O)N2CCCC[C@H]2C(=O)O[C@H]([C@H](C)C[C@@H]2CC[C@@H](O)[C@H](OC)C2)CC(=O)[C@H](C)/C=C(\C)[C@@H](O)[C@@H](OC)C(=O)[C@H](C)C[C@H](C)/C=C/C=C/C=C/1C [rapamycin] | – | – | 65
